According to ChEMBL document CHEMBL3885861, “Open TG-GATES”:

Organism: Rattus norvegicus
Assay: Open TG-GATES - Regimen: Single
Assay type: toxicity, organism-based, Sprague-Dawley
Design: regimen Single, gender Male, age 6 weeks
Conditions: in vivo, po, 24 h, route gavage; for Bas / Eos / Hb / Ht / Lym / MCH / MCHC / MCV / Mono / Neu / Plat / RBC / Ret / WBC: tissue Blood; for KIDNEY_L / KIDNEY_R / KIDNEY_TOTAL: tissue Kidney; for LIVER: tissue Liver; for A/G / ALP / ALT / AST / BUN / CRE / Ca / Cl / DBIL / GLC / IP / K / Na / PL / RALB / TBIL / TC / TG / TP / gamma-GTP: tissue Plasma

Compound COc1cc2c(c3oc(=O)c4c(c13)CCC4=O)[C@@H]1C=CO[C@@H]1O2 [AFLATOXIN] has a TERMINAL_BW (0 mg/kg, dose level Control) of 227.2 g, a Bas (0 mg/kg, dose level Control) of 0% and an Eos (0 mg/kg, dose level Control) of 1%. It also gave a Hb (0 mg/kg, dose level Control) of 12.7 g/dL, a Ht (0 mg/kg, dose level Control) of 37.5% and a Lym (0 mg/kg, dose level Control) of 79%. The MCH (0 mg/kg, dose level Control) was 20.7 pg, the MCHC (0 mg/kg, dose level Control) was 33.9% and the MCV (0 mg/kg, dose level Control) was 60.9 fL. It also gave a Mono (0 mg/kg, dose level Control) of 2.8%, a Neu (0 mg/kg, dose level Control) of 16.2% and a Plat (0 mg/kg, dose level Control) of 118.1 x10_4/uL. The RBC (0 mg/kg, dose level Control) was 616 x10_4/ul, the Ret (0 mg/kg, dose level Control) was 8.7% and the WBC (0 mg/kg, dose level Control) was 76.8 x10_2/uL. It also gave a KIDNEY_L (0 mg/kg, dose level Control) of 1 g, a KIDNEY_R (0 mg/kg, dose level Control) of 1 g and a KIDNEY_TOTAL (0 mg/kg, dose level Control) of 2.1 g. It also gave an LIVER (0 mg/kg, dose level Control) of 10.9 g, an A/G (0 mg/kg, dose level Control) of 1 and an ALP (0 mg/kg, dose level Control) of 1775.8 IU/L. For the same compound, the ALT (0 mg/kg, dose level Control) was 40 IU/L, the AST (0 mg/kg, dose level Control) was 72.2 IU/L and the BUN (0 mg/kg, dose level Control) was 16.5 mg/dL. The CRE (0 mg/kg, dose level Control) was 0.2 mg/dL, the Ca (0 mg/kg, dose level Control) was 10.8 mg/dL and the Cl (0 mg/kg, dose level Control) was 104.1 meq/L. For the same compound, the DBIL (0 mg/kg, dose level Control) was 0.002 mg/dL, the GLC (0 mg/kg, dose level Control) was 189.4 mg/dL and the IP (0 mg/kg, dose level Control) was 7 mg/dL. It also gave a K (0 mg/kg, dose level Control) of 4.5 meq/L, a Na (0 mg/kg, dose level Control) of 139.2 meq/L and a PL (0 mg/kg, dose level Control) of 153.4 mg/dL. The RALB (0 mg/kg, dose level Control) was 2.8 g/dL, the TBIL (0 mg/kg, dose level Control) was 0 mg/dL and the TC (0 mg/kg, dose level Control) was 76.2 mg/dL. It also gave a TG (0 mg/kg, dose level Control) of 141.9 mg/dL, a TP (0 mg/kg, dose level Control) of 5.7 g/dL and a gamma-GTP (0 mg/kg, dose level Control) of 0.8 IU/L. For the same compound, the TERMINAL_BW (1 mg/kg, dose level Low) was 220.4 g, the Bas (1 mg/kg, dose level Low) was 0% and the Eos (1 mg/kg, dose level Low) was 0.8%. The Hb (1 mg/kg, dose level Low) was 12.8 g/dL, the Ht (1 mg/kg, dose level Low) was 37.6% and the Lym (1 mg/kg, dose level Low) was 74.6%. The MCH (1 mg/kg, dose level Low) was 20.5 pg, the MCHC (1 mg/kg, dose level Low) was 34.2% and the MCV (1 mg/kg, dose level Low) was 60 fL. For the same compound, the Mono (1 mg/kg, dose level Low) was 4.8%, the Neu (1 mg/kg, dose level Low) was 19.2% and the Plat (1 mg/kg, dose level Low) was 127.7 x10_4/uL. For the same compound, the RBC (1 mg/kg, dose level Low) was 627.4 x10_4/ul, the Ret (1 mg/kg, dose level Low) was 8.8% and the WBC (1 mg/kg, dose level Low) was 97.6 x10_2/uL. The KIDNEY_L (1 mg/kg, dose level Low) was 1 g, the KIDNEY_R (1 mg/kg, dose level Low) was 1 g and the KIDNEY_TOTAL (1 mg/kg, dose level Low) was 2 g. It also gave an LIVER (1 mg/kg, dose level Low) of 10.2 g, an A/G (1 mg/kg, dose level Low) of 1 and an ALP (1 mg/kg, dose level Low) of 1769.4 IU/L. It also gave an ALT (1 mg/kg, dose level Low) of 59.6 IU/L, an AST (1 mg/kg, dose level Low) of 97 IU/L and a BUN (1 mg/kg, dose level Low) of 15.7 mg/dL. It also gave a CRE (1 mg/kg, dose level Low) of 0.2 mg/dL, a Ca (1 mg/kg, dose level Low) of 10.7 mg/dL and a Cl (1 mg/kg, dose level Low) of 103.9 meq/L. For the same compound, the DBIL (1 mg/kg, dose level Low) was 0.002 mg/dL, the GLC (1 mg/kg, dose level Low) was 171.4 mg/dL and the IP (1 mg/kg, dose level Low) was 7.5 mg/dL. For the same compound, the K (1 mg/kg, dose level Low) was 4.4 meq/L, the Na (1 mg/kg, dose level Low) was 138.8 meq/L and the PL (1 mg/kg, dose level Low) was 150.2 mg/dL. For the same compound, the RALB (1 mg/kg, dose level Low) was 2.8 g/dL, the TBIL (1 mg/kg, dose level Low) was 0 mg/dL and the TC (1 mg/kg, dose level Low) was 84.4 mg/dL. The TG (1 mg/kg, dose level Low) was 93.8 mg/dL, the TP (1 mg/kg, dose level Low) was 5.7 g/dL and the gamma-GTP (1 mg/kg, dose level Low) was 1 IU/L. The TERMINAL_BW (3 mg/kg, dose level Middle) was 219.9 g, the Bas (3 mg/kg, dose level Middle) was 0% and the Eos (3 mg/kg, dose level Middle) was 0.4%. For the same compound, the Hb (3 mg/kg, dose level Middle) was 13.4 g/dL, the Ht (3 mg/kg, dose level Middle) was 39.5% and the Lym (3 mg/kg, dose level Middle) was 74.2%. The MCH (3 mg/kg, dose level Middle) was 20.1 pg, the MCHC (3 mg/kg, dose level Middle) was 33.8% and the MCV (3 mg/kg, dose level Middle) was 59.5 fL. The Mono (3 mg/kg, dose level Middle) was 5.2%, the Neu (3 mg/kg, dose level Middle) was 18.6% and the Plat (3 mg/kg, dose level Middle) was 114.1 x10_4/uL. The RBC (3 mg/kg, dose level Middle) was 663 x10_4/ul, the Ret (3 mg/kg, dose level Middle) was 8.5% and the WBC (3 mg/kg, dose level Middle) was 84.9 x10_2/uL. For the same compound, the KIDNEY_L (3 mg/kg, dose level Middle) was 0.9 g, the KIDNEY_R (3 mg/kg, dose level Middle) was 0.9 g and the KIDNEY_TOTAL (3 mg/kg, dose level Middle) was 1.9 g. It also gave an LIVER (3 mg/kg, dose level Middle) of 10.1 g, an A/G (3 mg/kg, dose level Middle) of 1 and an ALP (3 mg/kg, dose level Middle) of 1736.6 IU/L. For the same compound, the ALT (3 mg/kg, dose level Middle) was 135 IU/L, the AST (3 mg/kg, dose level Middle) was 232 IU/L and the BUN (3 mg/kg, dose level Middle) was 15.8 mg/dL. It also gave a CRE (3 mg/kg, dose level Middle) of 0.2 mg/dL, a Ca (3 mg/kg, dose level Middle) of 10.7 mg/dL and a Cl (3 mg/kg, dose level Middle) of 105.1 meq/L. For the same compound, the DBIL (3 mg/kg, dose level Middle) was 0.012 mg/dL, the GLC (3 mg/kg, dose level Middle) was 167.8 mg/dL and the IP (3 mg/kg, dose level Middle) was 8.1 mg/dL. For the same compound, the K (3 mg/kg, dose level Middle) was 4.4 meq/L, the Na (3 mg/kg, dose level Middle) was 139.3 meq/L and the PL (3 mg/kg, dose level Middle) was 168 mg/dL. It also gave an RALB (3 mg/kg, dose level Middle) of 2.7 g/dL, a TBIL (3 mg/kg, dose level Middle) of 0.01 mg/dL and a TC (3 mg/kg, dose level Middle) of 84.4 mg/dL. It also gave a TG (3 mg/kg, dose level Middle) of 112.4 mg/dL, a TP (3 mg/kg, dose level Middle) of 5.5 g/dL and a gamma-GTP (3 mg/kg, dose level Middle) of 1.5 IU/L. For the same compound, the TERMINAL_BW (10 mg/kg, dose level High) was 214.9 g, the Bas (10 mg/kg, dose level High) was 0% and the Eos (10 mg/kg, dose level High) was 0.6%. It also gave a Hb (10 mg/kg, dose level High) of 14 g/dL, a Ht (10 mg/kg, dose level High) of 40.8% and a Lym (10 mg/kg, dose level High) of 47.8%. The MCH (10 mg/kg, dose level High) was 20.7 pg, the MCHC (10 mg/kg, dose level High) was 34.3% and the MCV (10 mg/kg, dose level High) was 60.5 fL. For the same compound, the Mono (10 mg/kg, dose level High) was 2.8%, the Neu (10 mg/kg, dose level High) was 47% and the Plat (10 mg/kg, dose level High) was 104.8 x10_4/uL. It also gave an RBC (10 mg/kg, dose level High) of 674.6 x10_4/ul, a Ret (10 mg/kg, dose level High) of 8.4% and a WBC (10 mg/kg, dose level High) of 101.9 x10_2/uL. The KIDNEY_L (10 mg/kg, dose level High) was 1 g, the KIDNEY_R (10 mg/kg, dose level High) was 1 g and the KIDNEY_TOTAL (10 mg/kg, dose level High) was 2 g. For the same compound, the LIVER (10 mg/kg, dose level High) was 9 g, the A/G (10 mg/kg, dose level High) was 1 and the ALP (10 mg/kg, dose level High) was 2013.2 IU/L. For the same compound, the ALT (10 mg/kg, dose level High) was 292.6 IU/L, the AST (10 mg/kg, dose level High) was 630.8 IU/L and the BUN (10 mg/kg, dose level High) was 19.7 mg/dL. It also gave a CRE (10 mg/kg, dose level High) of 0.2 mg/dL, a Ca (10 mg/kg, dose level High) of 10.7 mg/dL and a Cl (10 mg/kg, dose level High) of 103.7 meq/L. The DBIL (10 mg/kg, dose level High) was 0.094 mg/dL, the GLC (10 mg/kg, dose level High) was 153.2 mg/dL and the IP (10 mg/kg, dose level High) was 9.1 mg/dL. For the same compound, the K (10 mg/kg, dose level High) was 4.1 meq/L, the Na (10 mg/kg, dose level High) was 138.9 meq/L and the PL (10 mg/kg, dose level High) was 158.2 mg/dL. The RALB (10 mg/kg, dose level High) was 2.8 g/dL, the TBIL (10 mg/kg, dose level High) was 0.1 mg/dL and the TC (10 mg/kg, dose level High) was 87.4 mg/dL. It also gave a TG (10 mg/kg, dose level High) of 32.9 mg/dL, a TP (10 mg/kg, dose level High) of 5.6 g/dL and a gamma-GTP (10 mg/kg, dose level High) of 2.9 IU/L.
